Test results as given in patent US20240116863A1, “DIPHENYL THIOUREA AND DIPHENYL UREA DERIVATIVES AS INHIBITORS OF ENDOCYTOSIS” (priority 2022, published 2024).
Entries after “also recorded” stand apart in the source; their conditions may differ. Read-outs that look alike come from different tables or passages of the source.

How the values were obtained:
[1] = tested on: transferrin endocytosis in A549 cells; assay type: cell-based; settings: 10 μM
[2] = tested on: EGF endocytosis in A549 cells; assay type: cell-based; settings: 10 μM
[3] = tested on: cholera toxin B (CTXB) endocytosis in A549 cells; assay type: cell-based; settings: 10 μM
[4] = tested on: organelle acidification in A549 cells; assay type: cell-based; settings: 10 μM, 1 h
A549 cells = assay type: cell-based, Human
Method: Human lung epithelial cells (A549) were seeded in a 96-well optical-bottom plate. When the cells reached 70-80% confluency, the cells were treated with the compounds (DPUDs and DPTUD) dissolved in DMSO) (50 ∥M) for 12 h at 37° C. Following treatment, the cells were washed with PBS and fixed with 4% formaldehyde for 20 min at room temperature. Nucleus was stained with Hoechst diluted in PBS (1:10000). High-content microscopy and image analysis were performed to quantitate cell number (FIG. 3). All data are represented as mean±SD. The P-value was determined using one-way ANOVA with multiple comparisons w.r.t. DMSO. ns: P>0.05, *P<0.05, **P<0.01, ***P<0.001, ****P<0.0001.

[5] = tested on: SARS-CoV-2 Delta (B.1.617.2) and Omicron (B.1.1.529) strains; test: Infection of Vero-E6 cells with additional SARS-CoV-2 strains; assay type: cell-based
IAV (WSN) [6] = assay type: cell-based, influenza A virus
IAV (WSN) [7] = assay type: in vivo, C57BL/6 mice
IAV (X-31) = assay type: cell-based, influenza A virus; settings: 10 μM, A549 cells
cellular endocytosis = settings: cited from earlier work

In the case of `FC(F)(F)c1cc(NC(=S)Nc2cc(C(F)(F)F)cc(C(F)(F)F)c2)cc(C(F)(F)F)c1` [DPTUD, 1,3-bis(3,5-bis(trifluoromethyl)phenyl)thiourea], the transferrin uptake [1] is reported as “significantly blocked”, the EGF uptake [2] is reported as “significantly blocked” and the “cholera toxin B (CTXB) uptake” value [3] is reported as “significantly blocked”. The “organelle acidification (LysoTracker-positive signal)” value [4] was “robustly inhibited” and the “cytotoxicity” value (A549 cells; 50 μM, 12 h, A549 cells) was “did not show cytotoxicity”.
In the case of `O=C(Nc1cc(C(F)(F)F)cc(C(F)(F)F)c1)Nc1cc(C(F)(F)F)cc(C(F)(F)F)c1` [DPUD-1, 1,3-bis(3,5-bis(trifluoromethyl)phenyl)urea], the “effect on infection with SARS-CoV-2 Delta and Omicron” value [5] is reported as “highly effective; also recorded: Reduced infection”, the “IAV (WSN) titre in virus plaque assay” value (IAV (WSN) [6]) is reported as “significant reduction” and the “body weight recovery of the infected mice” value (IAV (WSN) [7]; […], 1 mg/kg i.p. twice daily 5 days) is reported as “most effective”. The “lung viral titres (RT-PCR of NP gene and plaque assay)” value (IAV (WSN) [7]; mouse, in vivo) was “significant reduction”, the “survival of infected mice” value (IAV (WSN) [7]; mouse, in vivo) was “Better survival” and the “virus particle internalization in live cells” value (IAV (X-31)) was “majority of the virus particles failed to enter the cells”.
With `O=C(Nc1ccc(C(F)(F)F)cc1)Nc1ccc(C(F)(F)F)cc1` [DPUD-2, 1,3-bis(4-(trifluoromethyl)phenyl)urea] the “effect on infection with SARS-CoV-2 Delta and Omicron” value [5] was “highly effective; also recorded: Reduced infection”.
For `O=C(Nc1cc(F)cc(F)c1)Nc1cc(F)cc(F)c1` [DPUD-16, 1,3-bis(3,5-difluorophenyl)urea], the “effect on infection with SARS-CoV-2 Delta and Omicron” value [5] was “Reduced infection”.
With `O=C(Nc1ccc(OC(F)(F)F)cc1)Nc1ccc(OC(F)(F)F)cc1` [DPUD-20, 1,3-bis(4-(trifluoromethoxy)phenyl)urea] the “effect on infection with SARS-CoV-2 Delta and Omicron” value [5] was “Reduced infection”.
In the case of `O=C(Nc1cc(Br)cc(Br)c1)Nc1cc(Br)cc(Br)c1` [DPUD-23, 1,3-bis(3,5-dibromophenyl)urea], the “effect on infection with SARS-CoV-2 Delta and Omicron” value [5] is reported as “highly effective; also recorded: Reduced infection”.
For `CN(C)CCCN1c2ccccc2Sc2ccc(Cl)cc21` [chlorpromazine, reference compound], the cytotoxicity (A549 cells; human) is listed as > 75% and the “inhibitory concentration of known endocytosis inhibitor” value (cellular endocytosis; 7× higher than the derivatives) is listed as 70 µM.
For methyl-β-cyclodextrin, the “inhibitory concentration of known endocytosis inhibitor” value (cellular endocytosis; 100× higher than the derivatives) is listed as 1000 µM.
